# Patent US6894059B1, “Compounds and methods for treatment of asthma, allergy and inflammatory disorders” (UCB S.A., priority 1999, dated 2005)
# Where a name gives a salt, the structure may show the parent alone.
# Target: T1, human 5-lipoxygenase enzyme (Homo sapiens, UniProt P09917)
# T1 construct: Blood is drawn from normal human volunteers into tubes containing heparin; endogenous in cells; host or cells: human whole blood, heparinized, stimulated with A23187
# T1 sequence (P09917 1-674): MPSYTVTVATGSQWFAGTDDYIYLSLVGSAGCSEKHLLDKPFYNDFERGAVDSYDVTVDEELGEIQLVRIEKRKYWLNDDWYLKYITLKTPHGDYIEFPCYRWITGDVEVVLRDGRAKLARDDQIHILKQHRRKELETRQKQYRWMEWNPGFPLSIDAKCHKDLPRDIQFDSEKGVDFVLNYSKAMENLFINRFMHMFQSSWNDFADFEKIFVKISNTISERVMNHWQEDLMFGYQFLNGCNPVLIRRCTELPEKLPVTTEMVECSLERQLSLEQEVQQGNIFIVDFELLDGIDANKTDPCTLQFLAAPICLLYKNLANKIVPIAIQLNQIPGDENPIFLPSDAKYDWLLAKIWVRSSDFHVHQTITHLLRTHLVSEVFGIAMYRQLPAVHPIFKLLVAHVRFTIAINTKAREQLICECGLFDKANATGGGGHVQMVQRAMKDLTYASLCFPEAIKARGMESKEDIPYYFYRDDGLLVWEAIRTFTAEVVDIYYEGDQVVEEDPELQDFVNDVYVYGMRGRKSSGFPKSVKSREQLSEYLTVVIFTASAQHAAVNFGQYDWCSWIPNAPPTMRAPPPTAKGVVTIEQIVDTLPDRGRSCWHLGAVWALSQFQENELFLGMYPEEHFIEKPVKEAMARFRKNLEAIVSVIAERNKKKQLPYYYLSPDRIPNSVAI
# Experiment: Inhibition of LTB4 production in human whole blood stimulated with calcium ionophore A23187
# Type: cell-based
# Settings: A23187 50 μM, LTB4 by EIA, read-out: HWB IC50
# Procedure: This assay examines the ability of a compound to inhibit leukotriene B4 Production from human blood stimulated with calcium ionophore. As this production of leukotriene B4 is mediated via the activation of the 5-lipoxygenase enzyme, this assay is predictive of a compound's ability to inhibit the human 5-lipoxygenase enzyme.
# The procedure for the assay is as follows. Blood is drawn from normal human volunteers into tubes containing heparin. 1 ml of the heparinized blood is pipetted into a 1.5 ml polypropylene tube. To this sample is added either different concentrations of the test compound (5 μl) dissolved in DMSO or 5 μl of DMSO as a vehicle control. These samples are incubated in a water bath, at […] for 15 min. […] From this a percent inhibition of LTB4 production by each concentration of test compound is calculated and the IC50 for inhibition of LTB4 production for each test compound is determined.
row,IC50 [nM],SMILES
1,3630,"C[C@@H](c1ccc(OCCN2CCN(C(c3ccc(F)cc3)c3ccc(F)cc3)CC2)cc1)N(O)C(N)=O (racemic) [Compound 11, amino-N-{[4-(2-{4-[bis(4-fluorophenyl)methyl]piperazinyl}ethoxy)phenyl]ethyl}-N-hydroxyamide]"

# Test system: not given
# Experiment: not given
# Settings: not given
row,SMILES,melting point [°C]
1,"NC(=O)c1cc(C#CCCN(O)C(N)=O)ccc1OCCN1CCN([C@H](c2ccccc2)c2ccc(Cl)cc2)CC1 (as salt: HCl) [Compound 64, 2-(2-{4-[(1R)(4-chlorophenyl)phenylmethyl]piperazinyl}ethoxy)-5-[4-(aminohydroxycarbonyl-amino)but-1-ynyl]benzamide]",208
2,"NC(=O)N(O)CCCCc1ccc(OCCCCN2CCN([C@H](c3ccccc3)c3ccc(Cl)cc3)CC2)cc1 (as salt: HCl) [Compound 76, N-{4-[4-(4-{4-[(1R)(4-chlorophenyl)phenylmethyl]piperazinyl}butoxy)phenyl]butyl}amino-N-hydroxyamide]",121 to 123
3,"NC(=O)c1cc(C#CCCN(O)C(N)=O)ccc1OCCN1CCN([C@H](c2ccccc2)c2ccc(Cl)cc2)CC1 (as salt: citrate) [Compound 93, 5-{4-[(aminocarbonyl) (hydroxy)amino]-1-butynyl}-2-(2-{4-[(R)-(4-chlorophenyl)(phenyl)methyl]-1-piperazinyl}ethoxy)benzamide]",153 to 156
4,"NC(=O)c1cc(C#CCCN(O)C(N)=O)ccc1OCCCN1CCN([C@H](c2ccccc2)c2ccc(Cl)cc2)CC1 [Compound 62, 2-[3-{4-[(1R)(4-chlorophenyl)phenylmethyl]piperazinyl}propoxy)-5-[4-(aminohydroxycarbonyl-amino)but-1-ynyl]benzamide]",153 to 155
5,"CC(=O)Nc1cc(C#CCCN(O)C(N)=O)ccc1OCCN1CCN([C@H](c2ccccc2)c2ccc(Cl)cc2)CC1 [Compound 77, N-[2-(2-{4-[(1R)(4-chlorophenyl)phenylmethyl]piperazinyl}ethoxy)-5-[4-(aminohydroxycarbonyl-amino)but-1-ynyl]phenyl] acetamide]",90 to 95
6,"NC(=O)N(O)CCCCc1ccc(OCCCN2CCN([C@H](c3ccccc3)c3ccc(Cl)cc3)CC2)cc1 [Compound 79, N-{4-[4-(3-{4-[(1R)(4-chlorophenyl)phenylmethyl]piperazinyl}propoxy)phenyl]butyl}amino-N-hydroxyamide]",60 to 65
7,"NC(=O)N(O)CCC#Cc1ccc(OCCCCN2CCN(C(c3ccc(F)cc3)c3ccc(F)cc3)CC2)cc1 [Compound 80, amino-N-{4-[4-(4-{4-[bis(4-fluorophenyl)methyl]piperazinyl}butoxy)phenyl]but-3-ynyl}-N-hydroxyamide]",64 to 68
8,"NC(=O)N(O)CCCc1ccc(OCCCN2CCN([C@H](c3ccccc3)c3ccc(Cl)cc3)CC2)cc1 [Compound 82, N-{3-[4-(3-{4-[(1R)(4-chlorophenyl)phenylmethyl]piperazinyl}propoxy)phenyl]propyl}amino-N-hydroxyamide]",52 to 90
9,"NC(=O)N(O)CCC#Cc1ccc(OCCN2CCN([C@H](c3ccccc3)c3ccc(Cl)cc3)CC2)cc1[N+](=O)[O-] [Compound 90, N-{4-[4-(2-{4-[(R)-(4-chlorophenyl)(phenyl)methyl]-1-piperazinyl}ethoxy)-2-nitrophenyl]-3-butynyl}-N-hydroxyurea]",70 to 75
10,"NC(=O)N(O)CCCOc1ccc(CCCN2CCN([C@H](c3ccccc3)c3ccc(Cl)cc3)CC2)cc1 [Compound 94, N-{3-[4-[3-{4-[(R)-(4-chlorophenyl)(phenyl)methyl]-1-piperazinyl}propyl]phenoxy]propyl}-N-hydroxyurea]",64 to 66
11,"NC(=O)N(O)CCC#Cc1ccc(OCC#CCN2CCN([C@H](c3ccccc3)c3ccc(Cl)cc3)CC2)cc1 [Compound 95, N-(4-{4-[(4-{4-[(R)(4-chlorophenyl)(phenyl)methyl]-1-piperazinyl}-2-butynyl)oxy]phenyl}-3-butynyl)-N-hydroxyurea]",127 to 130

# Further lines, results first:
row,melting point [°C],SMILES
1,162 to 165,"NC(=O)c1cc(C#CCCN(O)C(N)=O)ccc1OCCN1CCN([C@H](c2ccccc2)c2ccc(Cl)cc2)CC1 (as salt: fumarate) [Compound 89, 5-{4-[(aminocarbonyl) (hydroxy)amino]-1-butynyl}-2-(2-{4-[(R)-(4-chlorophenyl)(phenyl)methyl]-1-piperazinyl}ethoxy)benzamide]"
2,169 to 172,"NC(=O)c1cc(C#CCCN(O)C(N)=O)ccc1OCCN1CCN([C@H](c2ccccc2)c2ccc(Cl)cc2)CC1 (as salt: maleate) [Compound 91, 5-{4-[(aminocarbonyl) (hydroxy)amino]-1-butynyl}-2-(2-{4-[(R)-(4-chlorophenyl)(phenyl)methyl]-1-piperazinyl}ethoxy)benzamide]"
3,155 to 158,"NC(=O)c1cc(C#CCCN(O)C(N)=O)ccc1OCCN1CCN([C@H](c2ccccc2)c2ccc(Cl)cc2)CC1 (as salt: tartrate) [Compound 92, 5-{4-[(aminocarbonyl) (hydroxy)amino]-1-butynyl}-2-(2-{4-[(R)-(4-chlorophenyl)(phenyl)methyl]-1-piperazinyl}ethoxy)benzamide]"
4,148 to 150,"NC(=O)N(O)CCCCc1ccc(OCCN2CCN([C@H](c3ccccc3)c3ccc(Cl)cc3)CC2)cc1 [Compound 17, N-{4-[4-(2-{4-[(1R)(4-chlorophenyl)phenylmethyl]piperazinyl}ethoxy)phenyl]butyl}amino-N-hydroxyamide]"
5,156 to 158,"NC(=O)c1cc(C#CCCN(O)C(N)=O)ccc1OCCN1CCN([C@H](c2ccccc2)c2ccc(Cl)cc2)CC1 [Compound 35, 2-(2-{4-[(1R)(4-chlorophenyl)phenylmethyl]piperazinyl}ethoxy)-5-[4-(aminohydroxycarbonyl-amino)but-1-ynyl]benzamide]"
6,78,"NC(=O)N(O)CCC#Cc1ccc(OCCCN2CCN(C(c3ccc(F)cc3)c3ccc(F)cc3)CC2)cc1 [Compound 83, amino-N-{4-[4-(3-{4-[bis(4-fluorophenyl)methyl]piperazinyl}propoxy)phenyl]but-3-ynyl}-N-hydroxyamide]"
7,123 to 125,"NC(=O)c1cc(CCCCN(O)C(N)=O)ccc1OCCCN1CCN([C@H](c2ccccc2)c2ccc(Cl)cc2)CC1 [Compound 84, 2-(3-{4-[(1R)(4-chlorophenyl)phenylmethyl]piperazinyl}propoxy)-5-[4-(aminohydroxycarbonyl-amino)butyl]benzamide]"
8,138 to 140,"NC(=O)c1cc(CCCCN(O)C(N)=O)ccc1OCCN1CCN(C(c2ccc(F)cc2)c2ccc(F)cc2)CC1 [Compound 85, 5-{4-[(aminocarbonyl) (hydroxy)amino]butyl}-2-(2-{4-[bis(4-fluorophenyl)methyl]-1-piperazinyl}ethoxy)benzamide]"
9,30 to 80,"NC(=O)N(O)CCCc1ccc(OCCCN2CCN(C(c3ccc(F)cc3)c3ccc(F)cc3)CC2)cc1 [Compound 86, N-{3-[4-(3-{4-[bis(4-fluorophenyl)methyl]-1-piperazinyl}propoxy)phenyl]propyl}-N-hydroxyurea]"
10,65 to 70,"NC(=O)N(O)CCC#Cc1ccc(OCCN2CCN(C(c3ccc(F)cc3)c3ccc(F)cc3)CC2)cc1[N+](=O)[O-] [Compound 87, N-{4-[4-(2-{4-[bis(4-fluorophenyl)methyl]-1-piperazinyl}ethoxy)-2-nitrophenyl]-3-butynyl}-N-hydroxyurea]"
11,140 to 145,"NC(=O)N(O)CCCCc1ccc(OCCN2CCN(C(c3ccc(F)cc3)c3ccc(F)cc3)CC2)cc1 [Compound 88, N-{4-[4-(2-{4-[bis(4-fluorophenyl)methyl]-1-piperazinyl}ethoxy)phenyl]butyl}-N-hydroxyurea]"

# Target: T2, human cloned H1 receptor (Homo sapiens, UniProt P35367)
# T2 construct: expressed in transfected cells; host or cells: CHO-K1
# Experiment: CHO-K1 H1R binding assay (3H-pyrilamine displacement)
# Settings: CHO-K1 membranes, 3H-pyrilamine 2 nM, 3 hours at 37° C.; read-out: CHOH1 KI
# Procedure: CHO—K1 cells expressing the human cloned H1 receptor are grown to confluence in tissue culture dishes. Cells are harvested using D-PBS buffer (JRH Biosciences), kept at 4° C., centrifuging to pellet cells (4° C., 500 g, 10 min). The final cell pellet is homogenized and resuspended using Tris/sucrose buffer (20 mM Tris, 250 mM sucrose, pH 74 at 4° C. Aliquots of the membrane preparation are stored at −70° C.
# On the day of assay, the membrane preparation is thawed and centrifuged (TLA100.3 rotor, 4° C., 15 min, 23,000 rpm). The pellet is resuspended in Tris/sucrose buffer initially and then diluted further as necessary using assay buffer A (50 mM Na/KPO4, 2 mM MgCl2, 0.5% (w/v) BSA, pH 7.5).
# For the binding assay, the membrane preparation, test compound and ^3H-pyrilamine (2 nM final) in buffer A with 1% (v/v) DMSO final are incubated in a 96-well polypropylene plate for 3 hours at 37° C. Non-specific binding is determined in the presence of 10 μM pyrilamine. A 96-well harvester (Packard) is used to harvest the 96-well plate onto a GF/B filter plate pre-treated with 0.1% (v/v) PEI. The plate is counted in a Packard Topcounter after adding Microscint 20 (Packard) scintillation fluid. The Ki for each compound at the histamine H1 receptor is then calculated from these counts.
# T2 sequence (P35367 whole entry): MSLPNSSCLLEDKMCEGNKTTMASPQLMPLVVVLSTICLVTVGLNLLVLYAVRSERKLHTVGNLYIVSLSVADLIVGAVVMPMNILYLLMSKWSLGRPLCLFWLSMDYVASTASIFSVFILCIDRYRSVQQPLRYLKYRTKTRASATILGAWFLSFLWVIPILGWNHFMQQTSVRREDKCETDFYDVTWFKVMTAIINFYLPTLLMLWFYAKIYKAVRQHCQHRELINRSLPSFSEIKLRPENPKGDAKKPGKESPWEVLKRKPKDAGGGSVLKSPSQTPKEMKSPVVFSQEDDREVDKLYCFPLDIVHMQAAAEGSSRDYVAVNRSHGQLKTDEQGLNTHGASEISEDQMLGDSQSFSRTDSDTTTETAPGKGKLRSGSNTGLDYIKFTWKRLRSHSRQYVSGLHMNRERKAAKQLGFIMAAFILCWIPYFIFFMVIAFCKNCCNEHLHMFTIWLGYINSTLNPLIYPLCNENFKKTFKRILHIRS
row,Ki [nM],SMILES
1,130,"C[C@@H](c1ccc(OCCN2CCN(C(c3ccc(F)cc3)c3ccc(F)cc3)CC2)cc1)N(O)C(N)=O (racemic) [Compound 11, amino-N-{[4-(2-{4-[bis(4-fluorophenyl)methyl]piperazinyl}ethoxy)phenyl]ethyl}-N-hydroxyamide]"
